Measurements taken from patent US7214691B2, “2-substituted benzimidazole derivatives as selective melanin concentrating hormone receptor antagonists for the treatment of obesity and related disorders” (Schering Corporation, priority 2003, dated 2007).
Where two headings read alike, the source gives them in different places.

Biological target: T1, MCH receptor (Homo sapiens, UniProt Q99705)
T1 construct: expressed in transfected cells; host or cells: CHO cells
Test: MCH Receptor Binding Assay
Conditions: membranes from CHO cells expressing the MCH receptor, [125I]-MCH, SPA
Protocol: MCH Receptor Binding Assay: Membranes from CHO cells expressing the MCH receptor were prepared by lysing cells with 5 mM HEPES for 15 min at 4 C. Cell lysates were centrifuged ([…], 15 min) and the pellet was resuspended in 5 mM HEPES. For each 96-well plate (Microlite, Dynex Technologies), 1 mg of cell membranes were incubated with 10 mg of wheat germ agglutinin SPA beads (Amersham) for 5 min at 4 C in a volume of 10 ml of binding buffer (25 mM HEPES, 10 mM MGCl2, 10 mM NaCl, 5 mM MnCl2, 0.1% BSA). The membrane/bead mixture was centrifuged (1500×g, 3.5 min), the supernatant was aspirated, and the pellet was resuspended in 10 ml binding buffer. The centrifugation, aspiration and resuspension were then repeated. The membrane/bead mixture (100 μl) was then added to 96-well plates containing 50 μl of 500 pM [^125I]-MCH (NEN) and […] of the appropriate concentration of compound (4× the desired final concentration). Nonspecific binding was determined by including 1 μM MCH in the binding reaction. The binding reaction was incubated at room temperature for 2 h. Plates were then analyzed in a TOPCOUNT microplate scintillation counter (Packard). Data was analyzed and Ki values were determined using GraphPad Prism.

[1] = class symbols, read-out: MCH Ki

T1 sequence (Q99705 whole entry): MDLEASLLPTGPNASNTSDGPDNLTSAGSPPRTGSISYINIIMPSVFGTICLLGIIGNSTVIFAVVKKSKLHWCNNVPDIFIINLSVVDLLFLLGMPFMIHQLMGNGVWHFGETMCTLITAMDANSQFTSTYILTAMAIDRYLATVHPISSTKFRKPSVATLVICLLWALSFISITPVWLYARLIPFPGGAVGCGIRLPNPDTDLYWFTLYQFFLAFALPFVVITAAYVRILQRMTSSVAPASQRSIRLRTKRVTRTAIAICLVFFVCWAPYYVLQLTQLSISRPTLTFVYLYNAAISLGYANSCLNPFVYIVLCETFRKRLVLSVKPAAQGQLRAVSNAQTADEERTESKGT

Row | Ki [1] | Compound | Ki (numeric value in text, read-out: Ki value)
1 | < 20 nM | N#Cc1cccc(-c2ccc(C3(c4nc5cc(Cl)c(Cl)cc5[nH]4)CC34CCNCC4)cc2)c1 (centres unmarked) [Compound 24b] | –
2 | < 20 nM | N#Cc1cccc(-c2ccc(C3(c4nc5cc(Cl)c(Cl)cc5[nH]4)CC34CCN(CC3CC3)CC4)cc2)c1 (centres unmarked) [Compound 25b] | –
3 | 50 to 100 nM | CC(C)S(=O)(=O)N1CCC2(CC1)CC2(c1ccc(-c2cccc(C#N)c2)cc1)c1nc2cc(F)c(C(F)(F)F)cc2[nH]1 (centres unmarked) [Compound 26a] | –
4 | > 100 nM | CC(C)S(=O)(=O)N1CCC2(CC1)CC2(c1ccc(-c2cccc(C#N)c2)cc1)c1nc2cc(Cl)c(Cl)cc2[nH]1 (centres unmarked) [Compound 26b] | –
5 | 20 to 50 nM | CN(C)C(=O)N1CCC2(CC1)CC2(c1ccc(-c2cccc(C#N)c2)cc1)c1nc2cc(F)c(C(F)(F)F)cc2[nH]1 (centres unmarked) [Compound 27a] | –
6 | > 100 nM | CCN(CC)C(=O)N1CCC2(CC1)CC2(c1ccc(-c2cccc(C#N)c2)cc1)c1nc2cc(F)c(C(F)(F)F)cc2[nH]1 (centres unmarked) [Compound 27c] | –
7 | 20 to 50 nM | N#Cc1cccc(-c2ccc(C3(c4nc5cc(F)c(C(F)(F)F)cc5[nH]4)CC34CCN(CC(=O)O)CC4)cc2)c1 (centres unmarked) [Compound 28a] | –
8 | > 100 nM | N#Cc1cccc(-c2ccc(C3(c4nc5cc(F)c(C(F)(F)F)cc5[nH]4)CC34CCN(c3nccs3)CC4)cc2)c1 (centres unmarked) [Compound 29a] | –
9 | > 100 nM | N#Cc1cccc(-c2ccc(C3(c4nc5cc(F)c(C(F)(F)F)cc5[nH]4)CC34CCN(c3nc5ccc(Cl)cc5s3)CC4)cc2)c1 (centres unmarked) [Compound 29b] | –
10 | > 100 nM | N#Cc1cccc(-c2ccc(C3(c4nc5cc(F)c(C(F)(F)F)cc5[nH]4)CC34CCN(c3nc5ccccc5s3)CC4)cc2)c1 (centres unmarked) [Compound 29c] | –

Continued, molecule first:

Row | Compound | Ki [1] | Ki (numeric value in text, read-out: Ki value)
11 | N#Cc1cccc(-c2ccc(C(=C3CCN(Cc4ccccc4)CC3)c3nc4cc(F)ccc4[nH]3)cc2)c1 [Compound 1a] | > 100 nM | –
12 | COc1cc(C(=C2CCN(CC3CC3)CC2)c2nc3cc(F)c(C(F)(F)F)cc3[nH]2)ccc1-c1cccc(C#N)c1 [Compound 1aa] | > 100 nM | –
13 | COc1cc(C(=C2CCNCC2)c2nc3cc(F)c(C(F)(F)F)cc3[nH]2)ccc1-c1cccc(C#N)c1 [Compound 1ab] | > 100 nM | –
14 | N#Cc1cccc(-c2ccc(C(=C3CCN(Cc4ccccc4)CC3)c3nc4cc(F)c(Cl)cc4[nH]3)cc2)c1 [Compound 1b] | < 20 nM | –
15 | N#Cc1cccc(-c2ccc(C(=C3CCNCC3)c3nc4cc(Cl)c(Cl)cc4[nH]3)cc2)c1 [Compound 1c] | < 20 nM | –
16 | N#Cc1cccc(-c2ccc(C(=C3CCN(CC4CC4)CC3)c3nc4cc(Cl)c(Cl)cc4[nH]3)cc2)c1 [Compound 1d] | < 20 nM | –
17 | CN1CCC(=C(c2ccc(-c3cccc(C#N)c3)cc2)c2nc3cc(Cl)c(Cl)cc3[nH]2)CC1 [Compound 1e] | 20 to 50 nM | –
18 | N#Cc1cccc(-c2ccc(C(=C3CCN(C4CCCC4)CC3)c3nc4cc(Cl)c(Cl)cc4[nH]3)cc2)c1 [Compound 1f] | < 20 nM | –
19 | CS(=O)(=O)N1CCC(=C(c2ccc(-c3cccc(C#N)c3)cc2)c2nc3cc(Cl)c(Cl)cc3[nH]2)CC1 [Compound 1g] | 50 to 100 nM | –
20 | Fc1cc(F)cc(-c2ccc(C(=C3CCN(CC4CC4)CC3)c3nc4cc(Cl)c(Cl)cc4[nH]3)cc2)c1 [Compound 1h] | > 100 nM | –
21 | N#Cc1ccc(-c2ccc(C(=C3CCN(CC4CC4)CC3)c3nc4cc(Cl)c(Cl)cc4[nH]3)cc2)cc1 [Compound 1i] | > 100 nM | –
22 | Clc1cc2nc(C(=C3CCN(CC4CC4)CC3)c3ccc(-c4cccnc4)cc3)[nH]c2cc1Cl [Compound 1j] | 50 to 100 nM | –
23 | O=Cc1cccc(-c2ccc(C(=C3CCN(CC4CC4)CC3)c3nc4cc(Cl)c(Cl)cc4[nH]3)cc2)c1 [Compound 1k] | 20 to 50 nM | –
24 | CN(C)Cc1cccc(-c2ccc(C(=C3CCN(CC4CC4)CC3)c3nc4cc(Cl)c(Cl)cc4[nH]3)cc2)c1 [Compound 1l] | 20 to 50 nM | –
25 | Clc1cc2nc(C(=C3CCN(CC4CC4)CC3)c3ccc(-c4cccc(CN5CCC5)c4)cc3)[nH]c2cc1Cl [Compound 1m] | 50 to 100 nM | –
26 | CC(C)(C)OC(=O)N1CCC(=C(c2ccc(-c3cccc(C#N)c3)cc2)c2nc3cc(F)c(F)cc3[nH]2)CC1 [Compound 1n] | > 100 nM | –
27 | N#Cc1cccc(-c2ccc(C(=C3CCNCC3)c3nc4cc(F)c(F)cc4[nH]3)cc2)c1 [Compound 1o] | 50 to 100 nM | –
28 | CN1CCC(=C(c2ccc(-c3cccc(C#N)c3)cc2)c2nc3cc(F)c(F)cc3[nH]2)CC1 [Compound 1p] | > 100 nM | –
29 | N#Cc1cccc(-c2ccc(C(=C3CCN(CC4CC4)CC3)c3nc4cc(F)c(F)cc4[nH]3)cc2)c1 [Compound 1q] | 50 to 100 nM | –
30 | N#Cc1cccc(-c2ccc(C(=C3CCNCC3)c3nc4cc(C(F)(F)F)c(F)cc4[nH]3)cc2)c1 [Compound 1r] | < 20 nM | –
31 | N#Cc1cccc(-c2ccc(C(=C3CCNCC3)c3nc4c(Cl)cc(Cl)cc4[nH]3)cc2)c1 [Compound 1t] | > 100 nM | –
32 | N#Cc1cccc(-c2ccc(C(=C3CCN(CC4CC4)CC3)c3nc4cc(Cl)cc(Cl)c4[nH]3)cc2)c1 [Compound 1u] | 50 to 100 nM | –
33 | CS(=O)(=O)N1CCC(=C(c2ccc(-c3cccc(C#N)c3)cc2)c2nc3cc(F)c(C(F)(F)F)cc3[nH]2)CC1 [Compound 1v] | 50 to 100 nM | –
34 | CCN(CC)C(=O)N1CCC(=C(c2ccc(-c3cccc(C#N)c3)cc2)c2nc3cc(F)c(C(F)(F)F)cc3[nH]2)CC1 [Compound 1x] | 20 to 50 nM | –
35 | CN(C)C(=O)N1CCC(=C(c2ccc(-c3cccc(C#N)c3)cc2)c2nc3cc(F)c(C(F)(F)F)cc3[nH]2)CC1 [Compound 1y] | 20 to 50 nM | –
36 | N#Cc1cccc(-c2ccc(C(=C3CCN(CC(=O)O)CC3)c3nc4cc(F)c(C(F)(F)F)cc4[nH]3)cc2)c1 [Compound 1z] | < 20 nM | –
37 | CC(C)(C)OC(=O)N1CCC2(CC1)CC2(c1ccc(-c2cccc(C#N)c2)cc1)c1nc2cc(F)c(C(F)(F)F)cc2[nH]1 (centres unmarked) [Compound 23a] | > 100 nM | –
38 | CC(C)(C)OC(=O)N1CCC2(CC1)CC2(c1ccc(-c2cccc(C#N)c2)cc1)c1nc2cc(Cl)c(Cl)cc2[nH]1 (centres unmarked) [Compound 23b] | > 100 nM | –
39 | N#Cc1cccc(-c2ccc(C3(c4nc5cc(Cl)c(Cl)cc5[nH]4)CC34CCN(Cc3ccccc3)CC4)cc2)c1 (centres unmarked) [Compound 23c] | < 20 nM | –
40 | N#Cc1cccc(-c2ccc(C3(c4nc5cc(F)c(C(F)(F)F)cc5[nH]4)CC34CCNCC4)cc2)c1 (centres unmarked) [Compound 24a] | < 20 nM | 1.7 nM
